Measured values: patent US6784184B2, “5-(arylsulfonyl)-,5-(arylsulfinyl), and 5-(arylsulfanyl)-thiazolidine-2,4-diones useful for inhibition of farnesyl-protein transferase” (Wyeth Holdings Corporation, priority 2001, dated 2004)

Tests used:
FPTase (H-Ras substrate) = FPTase (H-Ras substrate) (UniProt P29702+P49355); assay: in vitro FTase Inhibition Assay, H-Ras as substrate for farnesylation; assay type: biochemical; conditions: H-Ras used as substrate for farnesylation
Protocol: (§1) The ability of the compounds of this invention to inhibit FPTase was evaluated in the standard pharmacological in vitro test procedures described below.
(§2) Methods—1. […] 2. Solution #1 is added to FPTase reaction in a volume of […]. 3. Standard reaction mix, […], contains 50 mM Tris (7.5), […], 3 mM MgCl2, 20 mM KCl, 5 mM DTT, 0.2% octyl-B-glucoside, 1% DMSO, […], 10 ng FPTase, and various concentrations of FPTase inhibitors. 4. Incubate for 30-90 min at […] 5. Stop reactions with TCA/SDS (6%/2%), hold at 4° C. for 45-60 min. 6. Filter by manifold or 96 well plate, wash filter 3-5× with TCA (6%). 7. Add scintillant to filters, measure ^3H-FPP incorporation into Ras protein.
(§3) (cpm from precipitated Ras with test compounds)−(background cpm)×100=% inhibition.
(§4) (cpm from precipitated Ras without test compounds)−(background cpm)

FPTase (K-Ras substrate) = FPTase (K-Ras substrate) (UniProt P29702+P49355); assay: in vitro FTase Inhibition Assay, K-Ras as substrate for farnesylation; assay type: biochemical; conditions: K-Ras used as substrate for farnesylation
Protocol: as §1, §2, §3, §4

Compound	IC50 (FPTase (H-Ras substrate))	IC50 (FPTase (K-Ras substrate))
O=C1NC(=O)C(CCCC#Cc2ccc(Cl)cc2)(S(=O)(=O)c2ccc(I)cc2)S1 (stereo not shown) [Example 104, 5-[5-(4-Chlorophenyl)pent-4-ynyl]-5-(4-iodobenzenesulfonyl)-thiazolidine-2,4-dione]	30 to 54 nM	230 to 900 nM
COc1ccc(S(=O)(=O)C2(CCCC#Cc3ccc(Cl)cc3)SC(=O)NC2=O)cc1 (stereo not shown) [Example 97, 5-[5-(4-Chlorophenyl)pent-4-ynyl]-5-(4-methoxyphenylsulfonyl)-thiazolidine-2,4-dione]	75 to 150 nM	3500 to 5500 nM
COc1ccc(S(=O)(=O)C2(CCCC#Cc3cccc([N+](=O)[O-])c3)SC(=O)NC2=O)cc1 (stereo not shown) [Example 118, 5-(4-Methoxybenzenesulfonyl)-5-[5-(3-nitrophenyl)pent-4-ynyl]-thiazolidine-2,4-dione]	70 nM	1900 nM
Cc1ccc([N+](=O)[O-])cc1C#CCCCC1(S(=O)(=O)c2ccc3ccccc3c2)SC(=O)NC1=O (stereo not shown) [Example 127, 5-[5-(2-Methyl-5-nitrophenyl)pent-4-ynyl]-5-(naphthalene-2-sulfonyl)-thiazolidine-2,4-dione]	120 to 140 nM	1300 to 1500 nM
COc1ccc(S(=O)(=O)C2(CCCC#Cc3cc(NC(=O)OC(C)C)ccc3C)SC(=O)N(C(=O)OC(C)C)C2=O)cc1 (stereo not shown) [Example 229, Isopropyl 5-(5-{5-[(isopropoxycarbonyl)-amino]-2-methylphenyl}pent-4-ynyl)-5-[(4-methoxyphenyl)sulfonyl]-2,4-dioxo-1,3-thiazolidine-3-carboxylate]	6 to 20 nM	100 to 700 nM
COC(=O)Nc1ccc(C)c(C#CCCCC2(S(=O)(=O)c3ccc(OC)cc3)SC(=O)NC2=O)c1 (stereo not shown) [Example 178, (3-{5-[5-(4-Methoxybenzenesulfonyl)-2,4-dioxothiazolidin-5-yl]pent-1-ynyl}-4-methylphenyl)carbamic Acid Methyl Ester]	17 to 32 nM	10 nM
CCCCOC(=O)Nc1ccc(C)c(C#CCCCC2(S(=O)(=O)c3ccc(OC)cc3)SC(=O)NC2=O)c1 (stereo not shown) [Example 181, (3-{5-[5-(4-Methoxybenzenesulfonyl)-2,4-dioxothiazolidin-5-yl]pent-1-ynyl}-4-methylphenyl)carbamic Acid Butyl Ester]	10 to 32 nM	100 to 130 nM
5-[5-(2-Methyl-4-nitrophenyl)pent-4-ynyl]-5-[4-(pyridin-4-yloxy)-benzenesulfonyl]-thiazolidine-2,4-dione [Example 128]	1 to 32 nM	20 to 220 nM
COc1ccc(S(=O)(=O)C2(CCCC#Cc3cc([N+](=O)[O-])ccc3OC)SC(=O)NC2=O)cc1 (stereo not shown) [Example 123, 5-(4-Methoxybenzenesulfonyl)-5-[5-(2-methoxy-5-nitrophenyl)pent-4-ynyl]-thiazolidine-2,4-dione]	80 to 82 nM	1000 to 2800 nM
COc1ccc(S(=O)(=O)C2(CCCC#Cc3cc(F)cc([N+](=O)[O-])c3)SC(=O)NC2=O)cc1 (stereo not shown) [Example 133, 5-[5-(3-Fluoro-5-nitrophenyl)pent-4-ynyl]-5-(4-methoxybenzene-sulfonyl)-thiazolidine-2,4-dione]	40 to 200 nM	54 to 1000 nM
COc1ccc(S(=O)(=O)C2(CCCC#Cc3cc(NC(=O)OC(C)(C)C)ccc3C)SC(=O)NC2=O)cc1 (single isomer, unassigned; more polar) [Example 223, Enantiomer of(3-{5-[5-(4-Methoxybenzenesulfonyl)-2,4-dioxothiazolidin-5-yl]pent-1-ynyl}-4-methylphenyl)carbamic Acid tert-Butyl Ester (more polar)]	63 nM	> 1000 nM
O=C1NC(=O)C(CCCC#Cc2ccc([N+](=O)[O-])cc2)(S(=O)(=O)c2ccc(I)cc2)S1 (stereo not shown) [Example 120, 5-(4-Iodobenzenesulfonyl)-5-[5-(4-nitrophenyl)pent-4-ynyl]-thiazolidine-2,4-dione]	18 to 32 nM	530 to 1000 nM
O=C1NC(=O)C(CCCC#Cc2ccc(Cl)cc2)(S(=O)(=O)c2ccc([N+](=O)[O-])cc2)S1 (stereo not shown) [Example 110, 5-[5-(4-Chlorophenyl)pent-4-ynyl]-5-(4-nitrobenzenesulfonyl)-thiazolidine-2,4-dione]	400 nM	7000 nM
COc1ccc(S(=O)(=O)C2(CCCC#Cc3cc(NC(=O)OCC(C)(C)C)ccc3C)SC(=O)NC2=O)cc1 (stereo not shown) [Example 180, (3-{5-[5-(4-Methoxybenzenesulfonyl)-2,4-dioxothiazolidin-5-yl]pent-1-ynyl}-4-methylphenyl)carbamic Acid Neopentyl Ester]	2 to 32 nM	7 to 90 nM
5-[5-(4-Chloro-2-methylphenyl)pent-4-ynyl]-5-(4-trifluoromethoxy-benzenesulfonyl)thiazolidine-2,4-dione [Example 140]	150 to 300 nM	1000 to 3600 nM
Cc1ccc(S(=O)(=O)C2(CC#Cc3ccc(-c4ccccc4)cc3)SC(=O)NC2=O)cc1 (stereo not shown) [Example 169, 5-(3-Biphenyl-4-yl-prop-2-ynyl)-5-(toluene-4-sulfonyl)-thiazolidine-2,4-dione]	100 nM	1800 nM
COc1ccc(S(=O)(=O)C2(CCCC#Cc3cccc(Cl)c3)SC(=O)NC2=O)cc1 (stereo not shown) [Example 102, 5-[5-(3-Chlorophenyl)pent-4-ynyl]-5-(4-methoxybenzenesulfonyl)-thiazolidine-2,4-dione]	30 to 32 nM	1400 nM
Cc1ccc(C#CCCCC2(S(=O)(=O)c3ccc(I)cc3)SC(=O)NC2=O)c(C)c1 (stereo not shown) [Example 137, 5-[5-(2,4-Dimethylphenyl)pent-4-ynyl]-5-(4-iodobenzenesulfonyl)-thiazolidine-2,4-dione]	21 to 400 nM	37 to 800 nM
O=C1NC(=O)C(CCCC#Cc2ccc(Cl)cc2)(S(=O)(=O)c2ccc(F)cc2)S1 (stereo not shown) [Example 105, 5-[5-(4-Chlorophenyl)pent-4-ynyl]-5-(4-fluorobenzenesulfonyl)-thiazolidine-2,4-dione]	50 to 150 nM	1500 to 1700 nM
O=C1NC(=O)C(CCCC#Cc2cc(Cl)ccc2Cl)(S(=O)(=O)c2ccc(I)cc2)S1 (stereo not shown) [Example 115, 5-[5-(2,5-Dichloro-phenyl)pent-4-ynyl]-5-(4-iodobenzenesulfonyl)-thiazolidine-2,4-dione]	12 to 320 nM	160 to 230 nM
COc1ccc(S(=O)(=O)C2(CCCC#Cc3cc(Cl)ccc3C)SC(=O)NC2=O)cc1 (stereo not shown) [Example 138, 5-[5-(5-Chloro-2-methylphenyl)pent-4-ynyl]-5-(4-methoxybenzene-sulfonyl)thiazolidine-2,4-dione]	23 to 32 nM	300 to 420 nM
COc1ccc(S(=O)(=O)C2(CCCC#Cc3ccc(C(F)(F)F)cc3)SC(=O)NC2=O)cc1 (stereo not shown) [Example 153, 5-(4-Methoxybenzenesulfonyl)-5-[5-(4-trifluoromethylphenyl)pent-4-ynyl]-thiazolidine-2,4-dione]	170 to 200 nM	1000 to 6100 nM
Cc1ccc(C)c(C#CCCCC2(S(=O)(=O)c3ccc(I)cc3)SC(=O)NC2=O)c1 (stereo not shown) [Example 134, 5-[5-(2,5-Dimethylphenyl)pent-4-ynyl]-5-(4-iodobenzenesulfonyl)-thiazolidine-2,4-dione]	14 to 850 nM	430 to 680 nM
COc1ccc(S(=O)(=O)C2(CCCC#Cc3ccc([N+](=O)[O-])cc3C)SC(=O)NC2=O)cc1 (stereo not shown) [Example 130, 5-(4-Methoxybenzenesulfonyl)-5-[5-(2-methyl-4-nitrophenyl)-pent-4-ynyl]-thiazolidine-2,4-dione]	23 to 56 nM	320 to 1000 nM
COc1ccc(S(=O)(=O)C2(CCCC#Cc3ccc(Cl)cc3C)SC(=O)NC2=O)cc1 (stereo not shown) [Example 142, 5-[5-(4-Chloro-2-methylphenyl)pent-4-ynyl]-5-(4-methoxybenzene-sulfonyl)-thiazolidine-2,4-dione]	17 to 30 nM	40 to 1000 nM
COC(=O)Nc1ccc(C)c(C#CCCCC2(S(=O)(=O)c3ccc(OC)cc3)SC(=O)N(C(=O)OC)C2=O)c1 (stereo not shown) [Example 228, Methyl 5-(5-{5-[(methoxycarbonyl)amino]-2-methylphenyl}pent-4-ynyl)-5-[(4-methoxyphenyl)sulfonyl]-2,4-dioxo-1,3-thiazolidine-3-carboxylate]	4 to 70 nM	230 to 1000 nM
COc1ccc(S(=O)(=O)C2(CCCC#Cc3cc(NC(=O)OCc4ccc([N+](=O)[O-])cc4)ccc3C)SC(=O)N(C(=O)OCc3ccc([N+](=O)[O-])cc3)C2=O)cc1 (stereo not shown) [Example 227, 4-Nitrobenzyl 5-[(4-methoxyphenyl)sulfonyl]-5-{5-[2-methyl-5-({[(4-nitrobenzyl)oxy]carbonyl}amino)phenyl]pent-4-ynyl}-2,4-dioxo-1,3-thiazolidine-3-carboxylate]	7 to 10 nM	210 to 400 nM
COc1ccc(S(=O)(=O)C2(CCCC#Cc3cc(NC(=O)Oc4ccc(Cl)cc4)ccc3C)SC(=O)NC2=O)cc1 (stereo not shown) [Example 177, (3-{5-[5-(4-Methoxybenzenesulfonyl)-2,4-dioxothiazolidin-5-yl]pent-1-ynyl}-4-methylphenyl)carbamic Acid 4-Chloro-phenyl Ester]	11 to 32 nM	86 to 100 nM
O=C1NC(=O)C(CCCC#Cc2ccc(Cl)cc2)(S(=O)(=O)c2cccc3ccccc23)S1 (stereo not shown) [Example 113, 5-[5-(4-Chlorophenyl)pent-4-ynyl]-5-(naphthalene-1-sulfonyl)-thiazolidine-2,4-dione]	50 to 60 nM	750 to 800 nM
